According to US11542295B2, “Use of 20-hydroxyecdysone and the derivatives thereof in the treatment of myopathies” (BIOPHYTIS, priority 2017, dated 2023):

How the values were obtained:
[1] = system: CTGF (connective tissue growth factor); assay: Heart mRNA expression of fibrosis marker CTGF (semi-quantitative PCR); format: in vivo, mouse; settings: mdx mice, 50 mg/kg*day, two months; p=0,0506
Experimental: (§1) Twelve-week-old C57BL10 gene pool (wild mice referred to as “C57” in the figures) and C57BL10 mdx (mouse model of Duchenne muscular dystrophy, referred to as “mdx” in the figures) male mice, produced at Charles Rivers, were used. Two groups of mdx were chronically exposed per os either to BIO101 (number of mice n=9) or to BIO103 (number of mice n=9) at a dose of 50 mg/kg*day. A group of C57 mice (number of mice n=5) and a group of mdx mice (number of mice n=15) received the vehicle, i.e. no treatment. The animals of all of the groups were tested for their functional capacity (exertion tolerance test) after two months of treatment. […]
(§2) An assessment of markers of fibrosis and cardiac hypertrophy is carried out at the end of the protocol, i.e. after two months of treatment. […] The extract RNA is quantified by spectrophotometry then the quality thereof is verified and validated with the Experion RNA StdSens Analysis Kit (Bio-Rad). […] Finally, semi-quantitative PCR analysis was carried out using SYBR® Green (Roche), a DNA intercalating agent and a LightCycler® 480 Real Time PCR (Roche) apparatus on 384-well plates. The molecular markers measured are as follows: • CTGF and collagen I: connective tissue growth factor (CTGF) is associated with healing and with many pathological fibrotic processes including DMD (Brigstock 2010; Song Y. 2017). […]

[2] = system: Human DMD skeletal muscle cells (KM571DMD10FL Cl1); assay: Differentiation of human DMD myoblasts into myotubes; format: cell-based; settings: 10 μM, vs untreated control cells
Experimental: Various parameters have been measured to assess myotube differentiation. Human DMD skeletal muscle cells (KM571DMD10FL Cl1) were differentiated for 3 days then incubated with or without BIO101 at 10 μM. The fusion index and the number of nuclei per myotube were validated as relevant and sensitive indicators of myotube differentiation.
The fusion index illustrated in FIG. 7A represents the percentage of differentiated cell nuclei with respect to the cell total.
The number of nuclei per myotube is illustrated in FIG. 7B, 300 myotubes were counted.
The myotube diameter is illustrated in FIG. 7C, 150 myotubes were measured per condition.
The results in FIGS. 7A,7B and 7C show the mean data measured during three independent experiments, plus or minus the standard error (SEM).

[3] = system: BMP4 (bone morphogenetic protein 4); assay: Heart mRNA expression of BMP4 (semi-quantitative PCR); format: in vivo, mouse; settings: mdx mice, 50 mg/kg*day, two months; p=0.0529
Experimental: as §1, §2

Col1a1 (collagen 1) = assay: Heart mRNA expression of fibrosis marker Col1a1 (semi-quantitative PCR); format: in vivo, mouse; settings: mdx mice, 50 mg/kg*day, two months
Experimental: as §1, §2

collagen I = assay: Collagen I protein expression in gastrocnemius muscle (Western Blot); format: in vivo, mouse; settings: 50 mg/kg*day, two months, p<0.01
Experimental: Twelve-week-old C57BL10 gene pool (wild mice referred to as “C57” in the figures) and C57BL10 mdx (mouse model of Duchenne muscular dystrophy, referred to as “mdx” in the figures) male mice, produced at Charles Rivers, were used. Two groups of mdx were chronically exposed per os either to BIO101 (number of mice n=9) or to BIO103 (number of mice n=9) at a dose of 50 mg/kg*day. A group of C57 mice (number of mice n=5) and a group of mdx mice (number of mice n=15) received the vehicle, i.e. no treatment. The animals of all of the groups were tested for their functional capacity (exertion tolerance test) after two months of treatment. The exertion tolerance test consists of measuring the maximum distance travelled (in-toto activity; FIGS. 1A and 1B). Furthermore, measurements of the maximum absolute isometric strength of the tibialis anterior muscle (in-situ activity; FIGS. 2A and 2B) were made after two months of treatment.
Alongside the observations made on the tibialis anterior muscle, an assessment of a marker of muscle fibrosis is carried out on the gastrocnemius muscle. The muscle is dissociated with moderate stirring for 16 h at 4° C. in RIPA lysis buffer. […] Collagen I is detected by Western Blot, detected by chemiluminescence then quantified by densitometry after normalisation with reference to GAPDH detection. […]

CC(C)(O)CC[C@@H](O)[C@](C)(O)[C@H]1CC[C@@]2(O)C3=CC(=O)[C@@H]4C[C@@H](O)[C@@H](O)C[C@]4(C)[C@H]3CC[C@]12C [BIO101, 20-hydroxyecdysone]
genic expression of CTGF in heart compared to control mdx animals [1]: prevents
increase in the myotube diameter ([2]; p<0.001): 21%
increase of the fusion index ([2]; p<0.001): +7%
increase in the number of nuclei per myotube ([2]; p<0.01): 34%
genic expression of BMP4 in heart compared to control mdx animals [3]: reduces

CCSCC(=O)[C@H]1CC[C@@]2(O)C3=CC(=O)[C@@H]4C[C@@H](O)[C@@H](O)C[C@]4(C)C3CC[C@]12C (stereo partly drawn) [BIO103, (2S,3R,5R,10R,13R,14S,17S)-17-(2-ethylsulfanylacetyl)-2,3,14-trihydroxy-10,13-dimethyl-2,3,4,5,9,11,12,15,16,17-decahydro-1H-cyclopenta[a]phenanthren-6-one]
genic expression of Col1a1 in heart compared to control mdx animals (Col1a1 (collagen 1)): tends to prevent
protein expression of collagen I in gastrocnemius muscle compared to untreated mdx mice (collagen I): significant decrease
